Target: T1, bovine liver catalase (BLC) (Bos taurus, UniProt P00432)
T1 construct: gene CAT
T1 sequence (P00432 2-527): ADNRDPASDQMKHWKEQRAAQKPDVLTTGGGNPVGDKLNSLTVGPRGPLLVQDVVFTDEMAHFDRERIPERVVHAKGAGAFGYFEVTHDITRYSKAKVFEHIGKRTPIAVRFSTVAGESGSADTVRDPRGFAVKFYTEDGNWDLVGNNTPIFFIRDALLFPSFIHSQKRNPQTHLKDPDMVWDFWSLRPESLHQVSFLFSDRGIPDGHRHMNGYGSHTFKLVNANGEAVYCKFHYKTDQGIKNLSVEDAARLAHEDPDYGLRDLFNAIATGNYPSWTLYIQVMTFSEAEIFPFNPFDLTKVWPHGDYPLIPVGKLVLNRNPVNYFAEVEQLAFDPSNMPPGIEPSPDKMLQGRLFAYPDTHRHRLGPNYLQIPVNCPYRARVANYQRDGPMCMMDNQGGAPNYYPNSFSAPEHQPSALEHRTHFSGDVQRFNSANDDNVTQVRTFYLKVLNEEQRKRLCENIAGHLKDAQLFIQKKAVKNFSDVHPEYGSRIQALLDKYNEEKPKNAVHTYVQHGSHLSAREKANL
Assay: UV kinetics of H2O2 decomposition at […] nm, Lineweaver-Burk (IC50 about […]); supported by fluorescence quenching, UV-vis and ATR-FTIR
Format: biochemical

O=C1C=C(O)C(=O)c2ccccc21 [LAW, 2-hydroxy-1,4-naphtoquinone]
Ki: 15.8 µM
